Test results as given in PubChem BioAssay AID248 (DTP/NCI, 2004).
Where “and” joins values, the source holds several entries; their conditions need not be identical. Equal entries are not always repeated. Inconclusive results and toxic doses are left out.

System: L1210 leukemia ip in BDF1 mice, survival T/C
Test: NCI In Vivo Anticancer Drug Screen. Data for tumor model L1210 Leukemia (intraperitoneal) in B6D2F1 (BDF1) mice
Settings: higher = longer survival
In short: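 Each compound was tested against a transplantable tumor grown in mice. The endpoint was survival, with treated animals benchmarked against vehicle controls as a simple ratio.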

[1] = endpoint: mean survival time, dose: 100.0 mg/kg/injection, schedule: Q01DX001 (ip), vehicle: other
[2] = endpoint: mean survival time, dose: 200.0 mg/kg/injection, schedule: Q01DX001 (ip), vehicle: other
[3] = endpoint: mean survival time, dose: 400.0 mg/kg/injection, schedule: Q01DX001 (ip), vehicle: other
[4] = endpoint: mean survival time, dose: 100.0 mg/kg/injection, schedule: Q04DX003 (ip), vehicle: Klucel (hydroxypropylcellulose) (HPC)
[5] = endpoint: mean survival time, dose: 200.0 mg/kg/injection, schedule: Q04DX003 (ip), vehicle: Klucel (hydroxypropylcellulose) (HPC)
[6] = endpoint: mean survival time, dose: 400.0 mg/kg/injection, schedule: Q04DX003 (ip), vehicle: Klucel (hydroxypropylcellulose) (HPC)
[7] = endpoint: mean survival time, dose: 100.0 mg/kg/injection, schedule: Q01DX001 (ip), vehicle: carboxymethylcellulose (CMC)
[8] = endpoint: mean survival time, dose: 200.0 mg/kg/injection, schedule: Q01DX001 (ip), vehicle: carboxymethylcellulose (CMC)
[9] = endpoint: mean survival time, dose: 400.0 mg/kg/injection, schedule: Q01DX001 (ip), vehicle: carboxymethylcellulose (CMC)
[10] = endpoint: mean survival time, dose: 100.0 mg/kg/injection, schedule: Q04DX003 (ip), vehicle: saline with Tween-80
[11] = endpoint: mean survival time, dose: 200.0 mg/kg/injection, schedule: Q04DX003 (ip), vehicle: saline with Tween-80
[12] = endpoint: mean survival time, dose: 100.0 mg/kg/injection, schedule: Q04DX003 (ip), vehicle: saline
[13] = endpoint: mean survival time, dose: 200.0 mg/kg/injection, schedule: Q04DX003 (ip), vehicle: saline

C[C@@H]1CC[C@@]2(OC1)O[C@H]1C[C@H]3[C@@H]4CC=C5C(C)(C)C(=O)C(O)=C[C@]5(C)[C@H]4CC[C@]3(C)[C@H]1[C@@H]2C
T/C (endpoint: mean survival time, dose: 100.0 mg/kg/injection, schedule: Q04DX003 (sc), vehicle: steriod suspending solution): 98 % of control
T/C (endpoint: mean survival time, dose: 200.0 mg/kg/injection, schedule: Q04DX003 (sc), vehicle: steriod suspending solution): 110 % of control
T/C (endpoint: mean survival time, dose: 400.0 mg/kg/injection, schedule: Q04DX003 (sc), vehicle: steriod suspending solution): 98 % of control

O=S(Cc1ccccc1)C(Cl)(Cl)c1ccccc1 (stereo not given)
T/C [1]: 96 % of control
T/C [2]: 98 % of control
T/C [3]: 102 % of control

CCOC(=O)c1ccc(OC(=O)Nc2ccc(Cl)cc2OC)cc1
T/C (endpoint: mean survival time, dose: 100.0 mg/kg/injection, schedule: Q01DX009 (ip), vehicle: saline): 87 % of control
T/C (endpoint: mean survival time, dose: 200.0 mg/kg/injection, schedule: Q01DX009 (ip), vehicle: saline): 100 % of control

O=C(O)CNc1ccccc1C(=O)O
T/C (endpoint: mean survival time, dose: 100.0 mg/kg/injection, schedule: Q01DX009 (ip), vehicle: Klucel (hydroxypropylcellulose) (HPC)): 105 % of control
T/C [4]: 102 % of control
T/C (endpoint: mean survival time, dose: 200.0 mg/kg/injection, schedule: Q01DX009 (ip), vehicle: Klucel (hydroxypropylcellulose) (HPC)): 98 % of control
T/C [5]: 97 % of control
T/C (endpoint: mean survival time, dose: 400.0 mg/kg/injection, schedule: Q01DX009 (ip), vehicle: Klucel (hydroxypropylcellulose) (HPC)): 92 % of control
T/C [6]: 96 % of control

C=CC[N+](CC=C)(CC=C)C/C=C/C[N+](CC=C)(CC=C)CC=C
T/C (endpoint: mean survival time, dose: 6.25 mg/kg/injection, schedule: Q01DX009 (ip), vehicle: water): 95 % of control
T/C (endpoint: mean survival time, dose: 12.5 mg/kg/injection, schedule: Q01DX009 (ip), vehicle: water): 94 % of control and 91 % of control
T/C (endpoint: mean survival time, dose: 25.0 mg/kg/injection, schedule: Q01DX009 (ip), vehicle: water): 93 % of control and 101 % of control
T/C (endpoint: mean survival time, dose: 50.0 mg/kg/injection, schedule: Q01DX009 (ip), vehicle: water): 104 % of control

CCOC(=O)C1(Br)CCN(S(=O)(=O)c2ccc(C)cc2)c2ccccc2C1=O (stereo not given)
T/C [7]: 108 % of control
T/C [8]: 103 % of control
T/C [9]: 100 % of control

CN=C(NC#N)NCCSCc1nc[nH]c1C
T/C (endpoint: median survival time, dose: 12.0 mg/kg/injection, schedule: Q01DX009 (ip), vehicle: Klucel (hydroxypropylcellulose) (HPC)): 100 % of control
T/C (endpoint: median survival time, dose: 25.0 mg/kg/injection, schedule: Q01DX009 (ip), vehicle: Klucel (hydroxypropylcellulose) (HPC)): 101 % of control
T/C (endpoint: median survival time, dose: 50.0 mg/kg/injection, schedule: Q01DX009 (ip), vehicle: Klucel (hydroxypropylcellulose) (HPC)): 106 % of control
T/C (endpoint: median survival time, dose: 100.0 mg/kg/injection, schedule: Q01DX009 (ip), vehicle: Klucel (hydroxypropylcellulose) (HPC)): 106 % of control
T/C (endpoint: median survival time, dose: 200.0 mg/kg/injection, schedule: Q01DX009 (ip), vehicle: Klucel (hydroxypropylcellulose) (HPC)): 108 % of control
T/C (endpoint: median survival time, dose: 400.0 mg/kg/injection, schedule: Q01DX009 (ip), vehicle: Klucel (hydroxypropylcellulose) (HPC)): 104 % of control

O=C(CNC(=O)Nc1cccc(Cl)c1)N/N=C/c1cccc([N+](=O)[O-])c1
T/C (endpoint: mean survival time, dose: 50.0 mg/kg/injection, schedule: Q01DX009 (ip), vehicle: saline with Tween-80): 98 % of control
T/C (endpoint: mean survival time, dose: 100.0 mg/kg/injection, schedule: Q01DX009 (ip), vehicle: saline with Tween-80): 95 % of control
T/C (endpoint: mean survival time, dose: 200.0 mg/kg/injection, schedule: Q01DX009 (ip), vehicle: saline with Tween-80): 98 % of control

CCCCCCCCCCCCC1C2CCCCC2C2CCCCC12 (stereo not given)
T/C (endpoint: mean survival time, dose: 100.0 mg/kg/injection, schedule: Q01DX001 (ip), vehicle: saline): 92 % of control
T/C (endpoint: mean survival time, dose: 200.0 mg/kg/injection, schedule: Q01DX001 (ip), vehicle: saline): 92 % of control
T/C (endpoint: mean survival time, dose: 400.0 mg/kg/injection, schedule: Q01DX001 (ip), vehicle: saline): 92 % of control

CCOC(=O)c1ccc(Oc2ncc([N+](=O)[O-])s2)cc1
T/C (endpoint: mean survival time, dose: 1.56 mg/kg/injection, schedule: Q01DX001 (ip), vehicle: saline): 107 % of control
T/C (endpoint: mean survival time, dose: 1.56 mg/kg/injection, schedule: Q04DX003 (ip), vehicle: saline): 96 % of control
T/C (endpoint: mean survival time, dose: 3.12 mg/kg/injection, schedule: Q01DX001 (ip), vehicle: saline): 110 % of control
T/C (endpoint: mean survival time, dose: 3.12 mg/kg/injection, schedule: Q04DX003 (ip), vehicle: saline): 100 % of control
T/C (endpoint: mean survival time, dose: 6.25 mg/kg/injection, schedule: Q01DX001 (ip), vehicle: saline): 98 % of control
T/C (endpoint: mean survival time, dose: 6.25 mg/kg/injection, schedule: Q04DX003 (ip), vehicle: saline): 96 % of control
T/C (endpoint: mean survival time, dose: 9.2 mg/kg/injection, schedule: Q04DX003 (ip), vehicle: saline): 103 % of control
T/C (endpoint: mean survival time, dose: 14.0 mg/kg/injection, schedule: Q04DX003 (ip), vehicle: saline): 98 % of control
T/C (endpoint: mean survival time, dose: 21.0 mg/kg/injection, schedule: Q04DX003 (ip), vehicle: saline): 96 % of control
T/C (endpoint: mean survival time, dose: 29.0 mg/kg/injection, schedule: Q04DX003 (ip), vehicle: saline with Tween-80): 103 % of control
T/C (endpoint: mean survival time, dose: 29.0 mg/kg/injection, schedule: Q04DX003 (ip), vehicle: saline): 93 % of control
T/C (endpoint: mean survival time, dose: 45.0 mg/kg/injection, schedule: Q04DX003 (ip), vehicle: saline): 102 % of control
T/C (endpoint: mean survival time, dose: 65.0 mg/kg/injection, schedule: Q04DX003 (ip), vehicle: saline with Tween-80): 86 % of control

Nc1ncnc(N)c1NC(=O)c1cccc(-c2ccccc2)c1
T/C (endpoint: mean survival time, dose: 100.0 mg/kg/injection, schedule: Q01DX001 (ip), vehicle: saline with Tween-80): 97 % of control
T/C (endpoint: mean survival time, dose: 200.0 mg/kg/injection, schedule: Q01DX001 (ip), vehicle: saline with Tween-80): 101 % of control
T/C (endpoint: mean survival time, dose: 400.0 mg/kg/injection, schedule: Q01DX001 (ip), vehicle: saline with Tween-80): 90 % of control

O=C(O)/C=C/S(=O)(=O)Cc1ccccc1
T/C [4]: 98 % of control
T/C [5]: 100 % of control

Cc1ccc(SNc2ccccc2)cc1
T/C [10]: 92 % of control
T/C [11]: 100 % of control

CN(N=O)C(=O)NCCCCNC(=O)N(C)N=O
T/C (endpoint: mean survival time, dose: 6.25 mg/kg/injection, schedule: Q01DX Z (ip), vehicle: carboxymethylcellulose (CMC)): 107 % of control
T/C (endpoint: mean survival time, dose: 12.5 mg/kg/injection, schedule: Q01DX Z (ip), vehicle: carboxymethylcellulose (CMC)): 112 % of control
T/C (endpoint: mean survival time, dose: 25.0 mg/kg/injection, schedule: Q01DX Z (ip), vehicle: carboxymethylcellulose (CMC)): 111 % of control
T/C (endpoint: mean survival time, dose: 50.0 mg/kg/injection, schedule: Q01DX Z (ip), vehicle: carboxymethylcellulose (CMC)): 108 % of control
T/C (endpoint: mean survival time, dose: 200.0 mg/kg/injection, schedule: Q01DX Z (ip), vehicle: carboxymethylcellulose (CMC)): 163 % of control

CCCN(CCC)CCCCCCO
T/C [10]: 94 % of control
T/C [11]: 96 % of control

Cn1ncc2c(Cl)ncnc21
T/C [1]: 113 % of control
T/C [2]: 94 % of control
T/C [3]: 102 % of control

CC(=O)SCCC(=O)O
T/C (endpoint: mean survival time, dose: 8.25 mg/kg/injection, schedule: Q01DX009 (ip), vehicle: saline): 94 % of control
T/C (endpoint: mean survival time, dose: 12.5 mg/kg/injection, schedule: Q01DX009 (ip), vehicle: saline): 92 % of control
T/C (endpoint: mean survival time, dose: 18.75 mg/kg/injection, schedule: Q01DX009 (ip), vehicle: saline): 103 % of control

OC[P+](c1ccccc1)(c1ccccc1)c1ccccc1
T/C [12]: 98 % of control
T/C [13]: 98 % of control

O=[N+]([O-])c1ccccc1S/N=C/c1ccccc1O
T/C (endpoint: mean survival time, dose: 100.0 mg/kg/injection, schedule: Q04DX002 (ip), vehicle: Klucel (hydroxypropylcellulose) (HPC)): 94 % of control
T/C (endpoint: mean survival time, dose: 200.0 mg/kg/injection, schedule: Q04DX002 (ip), vehicle: Klucel (hydroxypropylcellulose) (HPC)): 94 % of control
T/C (endpoint: mean survival time, dose: 400.0 mg/kg/injection, schedule: Q04DX002 (ip), vehicle: Klucel (hydroxypropylcellulose) (HPC)): 105 % of control

COc1cc(NC(=O)Nc2c(C)cc(I)cc2C(=O)O)c(I)cc1I
T/C (endpoint: mean survival time, dose: 75.0 mg/kg/injection, schedule: Q01DX001 (ip), vehicle: other): 87 % of control
T/C (endpoint: mean survival time, dose: 150.0 mg/kg/injection, schedule: Q01DX001 (ip), vehicle: other): 92 % of control
T/C (endpoint: mean survival time, dose: 300.0 mg/kg/injection, schedule: Q01DX001 (ip), vehicle: other): 91 % of control

N=C1SCc2c1sc1ccccc21
T/C [4]: 117 % of control
T/C [5]: 104 % of control
T/C [6]: 103 % of control

CN1CCc2ccc(O)cc2C1
T/C [12]: 95 % of control
T/C [13]: 95 % of control

CCCCCCCNC1=C(c2ccccc2)C(=O)C(NCCCCCCC)=C(c2ccccc2)C1=O
T/C [7]: 94 % of control
T/C [8]: 96 % of control
T/C [9]: 91 % of control

CN=C1N[N+]2=C(C)CSCC2(C)S1 (stereo not given)
T/C [12]: 98 % of control
T/C [13]: 98 % of control
T/C (endpoint: mean survival time, dose: 400.0 mg/kg/injection, schedule: Q04DX003 (ip), vehicle: saline): 89 % of control
